A word on the IC50: it is the concentration needed to halve the response being measured.

The target in one experiment is His-tagged recombinant human Gal-3 (hGal-3) (Homo sapiens (Human), UniProt P17931). Put plainly: Gal-3 HTRF assay (His-tagged hGal-3 binding to B-ASF).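 Also: compounds preincubated 30 min with hGal-3, then 1 h with B-ASF, detection via terbium anti-His antibody and streptavidin d2. Control with B-ASF counts as full signal, omitting B-ASF as background.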 As to conditions: HTRF, hGal-3 15 nM, B-ASF 15 nM; read-out: hGal-3 IC50. A general note: TR-FRET usually uses a lanthanide donor and a delayed reading to cut background.
Sequence of His-tagged recombinant human Gal-3 (hGal-3) (P17931 whole entry): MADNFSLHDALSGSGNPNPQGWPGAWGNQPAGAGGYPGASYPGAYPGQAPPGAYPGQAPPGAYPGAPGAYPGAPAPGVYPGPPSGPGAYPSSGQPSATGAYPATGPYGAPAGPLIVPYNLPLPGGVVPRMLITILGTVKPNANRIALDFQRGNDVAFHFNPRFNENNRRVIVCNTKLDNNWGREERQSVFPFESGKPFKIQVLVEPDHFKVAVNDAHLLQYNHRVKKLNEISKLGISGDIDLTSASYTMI
For `OC[C@H]1O[C@@H](c2nncn2-c2cccc(OCc3ccccc3)c2)[C@H](O)[C@@H](n2cc(-c3cc(F)c(F)c(F)c3)nn2)[C@H]1O` [Example 108], the IC50 amounted to 370 nM.

As for `OC[C@H]1O[C@@H](c2nncn2-c2cccc(C(F)(F)F)c2)[C@H](O)[C@@H](n2cc(-c3cc(F)c(F)c(F)c3)nn2)[C@H]1O` [Example 80], the IC50 came out at 330 nM.

As for `CS(=O)(=O)c1nnc([C@@H]2O[C@H](CO)[C@H](O)[C@H](n3cc(-c4cc(F)c(F)c(F)c4)nn3)[C@H]2O)n1-c1ccc(Cl)c(Cl)c1` [Example 279, (2S,3R,4R,5R,6R)-2-(4-(3,4-dichlorophenyl)-5-(methylsulfonyl)-4H-1,2,4-triazol-3-yl)-6-(hydroxymethyl)-4-(4-(3,4,5-trifluorophenyl)-1H-1,2,3-triazol-1-yl)tetrahydro-2H-pyran-3,5-diol], the half-inhibitory concentration (IC50) is 70 nM.

With `CNC(=O)c1nc([C@H]2C[C@@H](n3cc(-c4cccc(F)c4)nn3)[C@@H](O)[C@@H](CO)O2)n(-c2ccc3nc(C)sc3c2)n1` [Example 271, 5-((2R,4R,5R,6R)-4-(4-(3-fluorophenyl)-1H-1,2,3-triazol-1-yl)-5-hydroxy-6-(hydroxymethyl)tetrahydro-2H-pyran-2-yl)-N-methyl-1-(2-methylbenzo[d]thiazol-6-yl)-1H-1,2,4-triazole-3-carboxamide], the 50% inhibitory concentration (IC50) was 390 nM.

In the case of `O=C1CCc2cc(-n3cnnc3[C@@H]3O[C@H](CO)[C@H](O)[C@H](n4cc(-c5cc(F)c(F)c(F)c5)nn4)[C@H]3O)ccc2N1` [Example 121], the IC50 stood at 260 nM.

For `CCO[C@@H]1[C@@H](n2cc(-c3cc(F)c(F)c(F)c3)nn2)[C@@H](O)[C@@H](CO)O[C@H]1c1ncnn1-c1cccc(Cl)c1` [Example 55], the IC50 was found to be 157 nM.

`Cc1nc([C@@H]2O[C@H](CO)[C@H](O)[C@H](n3cc(-c4cc(F)c(Cl)c(F)c4)nn3)[C@H]2O)n(-c2cc(Cl)ccc2Cl)n1` [Example 260]: the 50% inhibitory concentration (IC50) came to 50 nM.

Regarding `O=S(=O)(Nc1nccs1)c1ccc(-n2cnnc2[C@@H]2O[C@H](CO)[C@H](O)[C@H](n3cc(-c4cc(F)c(F)c(F)c4)nn3)[C@H]2O)cc1` [Example 106], the half-maximal inhibitory concentration (IC50) came to 760 nM.

With `CCc1ccc(Cl)cc1-n1nc(C)nc1[C@@H]1O[C@H](CO)[C@H](O)[C@H](n2cc(-c3cc(F)c(F)c(F)c3)nn2)[C@H]1O` [Example 72], the 50% inhibitory concentration (IC50) is 20 nM.

In the case of `OC[C@H]1O[C@@H](c2ncnn2-c2ccncc2)[C@H](O)[C@@H](n2cc(-c3cc(F)c(F)c(F)c3)nn2)[C@H]1O` [Example 42], the IC50 worked out at 460 nM.

Regarding `Cc1nc2ccc(-n3ncnc3[C@@H]3O[C@H](CO)[C@H](O)[C@H](n4cc(-c5cc(F)c(N6CC(O)C6)c(F)c5)nn4)[C@H]3O)cc2s1` [Example 242], the IC50 was 60 nM.

For `OC[C@H]1O[C@@H](c2ncnn2-c2ccc3nc(N4CCOCC4)sc3c2)[C@H](O)[C@@H](n2cc(-c3cc(F)c(F)c(F)c3)nn2)[C@H]1O` [Example 50], the IC50 came out at 120 nM.

`OC[C@H]1O[C@@H](c2ncnn2-c2ccccc2Cl)[C@H](O)[C@@H](n2cc(-c3cc(F)c(F)c(F)c3)nn2)[C@H]1O` [Example 24]: the IC50 was 480 nM.

The same experiment, now with this note: read-out: hGal3 IC50.
`Cc1nc2ccc(-n3ncnc3[C@@H]3O[C@H](CO)[C@H](O)[C@H](n4cc(-c5ccc(C)c(F)c5)nn4)[C@H]3O)cc2s1` [Example 212]: the IC50 amounted to 60 nM.

Consider `Cc1nnc([C@@H]2O[C@H](CO)[C@H](O)[C@H](n3cc(-c4cc(F)c(Cl)c(F)c4)nn3)[C@H]2O)n1-c1cc(Cl)cc2cccnc12` [Example 319], for which the IC50 came out at 14 nM.

For `Cc1nc([C@@H]2O[C@H](CO)[C@H](O)[C@H](n3cc(-c4ccc(Cl)c(F)c4)nn3)[C@H]2O)n(-c2cc(Cl)ccc2Cl)n1` [Example 246], the half-inhibitory concentration (IC50) is 30 nM.

For `Cc1nc([C@@H]2O[C@H](CO)[C@H](O)[C@H](n3cc(-c4ccc(Cl)c(F)c4)nn3)[C@H]2O)n(-c2ccc3ncsc3c2)n1` [Example 256], the concentration for half-maximal inhibition (IC50) is 80 nM.

`Cc1nc2ccc(-n3ncnc3[C@@H]3O[C@H](CO)[C@H](O)[C@H](n4cc(-c5ccc(Br)cc5)nn4)[C@H]3O)cc2s1` [Example 225]: the IC50 came to 210 nM.

With `Cc1nc([C@@H]2O[C@H](CO)[C@H](O)[C@H](n3cc(-c4ccc(Cl)c(F)c4)nn3)[C@H]2O)n(-c2cc(F)ccc2C(F)(F)F)n1` [Example 254], the 50% inhibitory concentration (IC50) was found to be 110 nM.

For `Cc1nc2ccc(-n3ncnc3[C@@H]3O[C@H](CO)[C@H](O)[C@H](n4cc(-c5ccc(CC#N)c(F)c5)nn4)[C@H]3O)cc2s1` [Example 231], the IC50 came out at 390 nM.

As for `Cc1nnc([C@@H]2O[C@H](CO)[C@H](O)[C@H](n3cc(-c4cc(F)c(Br)c(F)c4)nn3)[C@H]2O)n1-c1cc(Cl)ccc1C(F)(F)F` [Example 313], the IC50 is 8.7 nM.

The same experiment, now with this note: read-out: hGal IC50.
For the compound `Cc1nc([C@@H]2O[C@H](CO)[C@H](O)[C@H](n3cc(-c4ccc(Br)c(F)c4)nn3)[C@H]2O)n(-c2ccc3ncsc3c2)n1` [Example A22], the IC50 was found to be 22 nM.

In the case of `COc1ccc(C(F)(F)F)c(-n2nc(C)nc2[C@@H]2O[C@H](CO)[C@H](O)[C@H](n3cc(-c4cc(F)c(Cl)c(F)c4)nn3)[C@H]2O)c1` [Example A64], the IC50 was determined as 42 nM.

Consider `Cc1nc([C@@H]2O[C@H](CO)[C@H](O)[C@H](n3cc(-c4cc(F)c(Cl)c(F)c4)nn3)[C@H]2O)n(-c2ccc3nc(C)sc3c2)n1` [Example A36], for which the IC50 stood at 53 nM.

Regarding `Cc1nc([C@@H]2O[C@H](CO)[C@H](O)[C@H](n3cc(-c4ccc(Cl)c(F)c4)nn3)[C@H]2O)n(-c2cc(Cl)ccc2OC(F)(F)F)n1` [Example A20], the IC50 came to 31 nM.

For the compound `Cc1nc([C@@H]2O[C@H](CO)[C@H](O)[C@H](n3cc(-c4cc(F)c(Br)c(F)c4)nn3)[C@H]2O)n(-c2ccc3nc(C)sc3c2)n1` [Example A32], the IC50 is 41 nM.

In the case of `Cc1nc([C@@H]2O[C@H](CO)[C@H](O)[C@H](n3cc(-c4ccc(Cl)c(F)c4F)nn3)[C@H]2O)n(-c2cc(Cl)ccc2C2CC2)n1` [Example A44], the half-inhibitory concentration (IC50) is 140 nM.

For `Cc1nc([C@@H]2O[C@H](CO)[C@H](O)[C@H](n3cc(-c4ccc(Cl)c(F)c4)nn3)[C@H]2O)n(-c2ccc3nc(C(F)(F)F)sc3c2)n1` [Example A9], the 50% inhibitory concentration (IC50) is 837 nM.

Regarding `Cc1nc([C@@H]2O[C@H](CO)[C@H](O)[C@H](n3cc(-c4cc(F)c5ccccc5c4)nn3)[C@H]2O)n(-c2ccc3ncsc3c2)n1` [Example A70], the half-inhibitory concentration (IC50) came out at 15 nM.

Values taken from patent US11267811B2, “Small molecule inhibitors of galectin-3” (BRISTOL-MYERS SQUIBB COMPANY, priority 2017, dated 2022).
